From BindingDB's records for doi:10.1016/j.bmcl.2007.12.050 (Neurogen, 2008)

Assay: Antagonist activity at CRF1 receptor expressed in mouse AtT20 cells assessed as inhibition of sauvagine-stimulated cAMP accumulation

SMILES: CCCN(CCC)c1c(C)nc(-c2c(C)cc(C)cc2OC)c2ccccc12 [1-(2-methoxy-4,6-dimethylphenyl)-3-methyl-N,N-dipropylisoquinolin-4-amine]
- Ki: 12 nM
